# Where two headings read alike, the source gives them in different places. Marks after values point to notes of the source that are not given here.
# Columns and labels:
# CrFK cells [1] = assay: Cellular uptake study by fluorescence microscopy; assay type: cell-based, feline; details: 20 μM, examined at 1, 3 and 6 h
# Method: The cellular uptake of curcumin and the Cur-CS nanoparticles by CrFK cells was examined using the fluorescence method. […] The plates were incubated at 37°C in an incubator with 5% CO2 for 24 h. […] At these intervals, the cells were rinsed three times with PBS. […] The dried coverslips were mounted on a glass slide, and images were captured by an Olympus IX81 inverted fluorescence microscope (Olympus, Japan) under a 535–600 nm filter.
# Cytotoxicity assay (MTT) = assay type: cell-based, feline; details: cat
# Method: (§1) CrFK cells at a density of 2 × 10^4 were incubated in 96-well culture plates for 24 h at 37°C. Then, the cells were washed with PBS. […] A colorimetric MTT assay was performed. Briefly, 20 μL 5 mg/mL MTT solution was added to each well and incubated for 2 h at 37°C. Then, 170 μL solution was removed from each well; subsequently, 100 μL DMSO was added to dissolve the formazan crystals. The plate was then incubated for 1 h before optical density (OD) measurement at 570 nm using a plate reader (BioTek EL800, BioTek, Winooski, VT, USA).
# (§2) The relative cell viability (%) of CrFK cells after treatment was calculated using the formula (OD570 (treated cells)/OD570 (control cells)) × 100. The median cytotoxic concentration (CC50) is the concentration that reduces the absorbance of treated cells to 50% with respect to the cell controls. The CC50 of the compounds was calculated by regression analysis in SPSS software version 22.0 (IBM, Chicago, IL, USA).
# CrFK cells [2] = assay: Cytotoxicity assay (MTT); assay type: cell-based, feline; details: CrFK cells; MTT; tested 1 to 250 μg/mL
# Method: as §1, §2
# FIPV strain WSU 79-1146 = assay: Cytopathic effect inhibition assay (time of addition, MTT); assay type: cell-based, feline infectious peritonitis virus
# Method: The cytopathic effect (CPE) inhibition assay with slight modifications was used as previously described. […] In pretreatment, the compounds were included in the cell culture medium for 8 h and were removed prior to virus infection. In cotreatment, the compounds were mixed with virus in the medium, added simultaneously to the cells, and left on the cells throughout. For posttreatment, the compounds were added to the cells 2 h postinfection (hpi) and remained throughout the time of infection. […] After incubation at 37°C for 48 and 72 h, the cell viability was determined by MTT.
# The percentage of protection was calculated based on the OD using the following formula: (3) Percentage of protection %=OD570 T−OD570 V/OD570 C−OD570 V×100, where T is the treated sample, V is the virus-infected control, and C is the negative control.
# The median effective concentration (EC50) is the concentration of compound required to achieve 50% protection against virus-induced CPE.
# [3] = Pharmacokinetics study in healthy cats (plasma curcumin by HPLC); assay type: in vivo; details: for Curcumin content in plasma: any interval, not detected, below detection limit of HPLC; for Tmax / Cmax / AUC(0-t): po, 250 mg/kg; for Cmax: plasma curcumin
# Method: Single-dosing (s.i.d.) and two-dosing (b.i.d.) oral administration of curcumin and Cur-CS nanoparticle pharmacokinetics study spanning 24 h was performed in the cats, which weighed 1.5–3.5 kg. The cats were randomly divided into four groups, and each group contained four cats. […] Prior to and 0.5, 1, 2, 3, 4, 8, 12, and 24 h after the treatments, 1 mL blood was harvested via jugular, cephalic, or saphenous venipuncture into lithium heparinized tubes (BD, Franklin Lakes, NJ, USA). The plasma was immediately centrifuged at 500 g for 5 min at 4°C and stored at -80°C until use. The cats then underwent a 2-week washout and rest period prior to testing on the following treatment and series of blood collection. All the cats were neutered at the end of the study and adopted by the public. Curcumin was extracted from plasma using the polar solvent extraction method. Ethyl acetate (500 μL) was added to 200 μL plasma and vortexed for 10 min. The samples were centrifuged at 4000 g at 10°C for 15 min, and the upper ethyl acetate layer was transferred to a new 1.5 mL tube. The extraction was repeated twice and performed under dim light conditions to prevent the degradation of curcumin. […] An aliquot of a 20 μL sample was analysed for quantifying the curcumin in the plasma by HPLC. The curcumin was quantified using a Series 1200 Quaternary HPLC system (Agilent Technologies, Santa Clara, CA, USA) with an UV-Vis detector equipped with an Eclipse Plus C18 column (Agilent Technologies). The HPLC system was first optimised as previously described and further adjusted to suitable settings. […] The flow rate of the mobile phase was maintained at 1 mL/min with an injection volume of 20 μL sample, where the column temperature was maintained at 35°C. The detector signal of the HPLC system for curcumin detection was adjusted to 425 nm. A 6-point calibration curve was prepared by serial dilution of 1 mg/mL curcumin stock solution in methanol. Curcumin concentrations (ng/mL) in the plasma were calculated based on the calibration curve. Time to reach maximum plasma concentration (Tmax) and maximum plasma concentration (Cmax) values were obtained directly from the measured data. The area under the curve from 0 to t (AUC0-t) was calculated using the linear-log trapezoidal method.
# different cells = test system: different cells; parameters: method as in PMID 23658730, doi:10.4236/aim.2016.64027, PMID 20603153; details: ref [19], [60], [61]; cited from earlier work
# [4] = plasma, oral 250 mg/kg, single dosing (s.i.d.)
structure (smiles),measurement,setting,value
COc1cc(/C=C/C(=O)CC(=O)/C=C/c2ccc(O)c(OC)c2)ccc1O [Curcumin],Cellular uptake: time at which green fluorescence was first observed,CrFK cells [1],3 h
same,CC50 at 24 h,Cytotoxicity assay (MTT),69.9 µM
same,CC50 at 48 h,Cytotoxicity assay (MTT),59.1 µM
same,CC50 at 72 h,Cytotoxicity assay (MTT),35.5 µM
same,Concentration tolerated by the cells without cytotoxic effect,CrFK cells [2],15000 ng/mL
same,SI,"FIPV strain WSU 79-1146; 48 h, CC50/EC50",3.72
same,EC50,"FIPV strain WSU 79-1146; Alphacoronavirus 1, 48 h, 50% protection against virus-induced CPE, 100 TCID50 FIPV in CrFK cells",15.9 µM
same,Percentage of protection,"FIPV strain WSU 79-1146; cotreatment, 48 h, 5 μM",21.98 ± 7.01^b %
same,Percentage of protection,"FIPV strain WSU 79-1146; cotreatment, 48 h, 10 μM",40.08 ± 3.71^d %
same,Percentage of protection,"FIPV strain WSU 79-1146; cotreatment, 48 h, 20 μM",55.95 ± 1.82^e %
same,Percentage of protection,"FIPV strain WSU 79-1146; cotreatment, 48 h, 20 μM, listed as curcumin",56%
same,Percentage of protection,"FIPV strain WSU 79-1146; cotreatment, 72 h, 5 μM",11.99 ± 3.43^b %
same,Percentage of protection,"FIPV strain WSU 79-1146; cotreatment, 72 h, 10 μM",18.82 ± 1.93^c %
same,Percentage of protection,"FIPV strain WSU 79-1146; cotreatment, 72 h, 20 μM",22.25 ± 2.05^c %
same,Percentage of protection,"FIPV strain WSU 79-1146; posttreatment, 48 h, 5 μM",0.08 ± 0.13^a %
same,Percentage of protection,"FIPV strain WSU 79-1146; posttreatment, 48 h, 10 μM",13.31 ± 3.93^b %
same,Percentage of protection,"FIPV strain WSU 79-1146; posttreatment, 48 h, 20 μM",17.28 ± 0.78^bc %
same,Percentage of protection,"FIPV strain WSU 79-1146; posttreatment, 72 h, 5 μM",0.99 ± 1.71^a %
same,Percentage of protection,"FIPV strain WSU 79-1146; posttreatment, 72 h, 10 μM",2.59 ± 1.55^a %
same,Percentage of protection,"FIPV strain WSU 79-1146; posttreatment, 72 h, 20 μM",2.13 ± 1.91^a %
same,Percentage of protection,"FIPV strain WSU 79-1146; pretreatment, 48 h, 5 μM",0.38 ± 0.66^a %
same,Percentage of protection,"FIPV strain WSU 79-1146; pretreatment, 48 h, 10 μM",3.87 ± 1.64^ab %
same,Percentage of protection,"FIPV strain WSU 79-1146; pretreatment, 48 h, 20 μM",12.79 ± 2.27^c %
same,Percentage of protection,"FIPV strain WSU 79-1146; pretreatment, 72 h, 5 μM",1.74 ± 1.06^ab %
same,Percentage of protection,"FIPV strain WSU 79-1146; pretreatment, 72 h, 10 μM",1.16 ± 1.82^a %
same,Percentage of protection,"FIPV strain WSU 79-1146; pretreatment, 72 h, 20 μM",5.12 ± 2.03^bc %
same,Curcumin content in plasma,[3]; 50 mg/kg,< 25 ng/mL
same,Curcumin content in plasma,[3]; 100 mg/kg,< 25 ng/mL
same,Tmax,"[3]; cat, plasma, oral 250 mg/kg, b.i.d. study, as stated in the text (similar to s.i.d. profile)",2 to 4 h
same,AUC0-12 as share of AUC0-∞,[3]; oral 250 mg/kg,more than 80%
same,AUC(0-inf),[3]; [4],1370 ± 112 ng·h/mL
same,Tmax,[3]; [4],3 h
same,Cmax,[3]; [4],220 ± 18.6 ng/mL
same,AUC(0-t),"[3]; plasma, oral 250 mg/kg, single dosing (s.i.d.), read-out: AUC0-12",1140 ± 137 ng·h/mL
same,Cmax,"[3]; plasma, oral 250 mg/kg, two dosing (b.i.d.) 12 h apart",241 ± 27.1 ng/mL
same,Tmax,"[3]; plasma, oral 250 mg/kg, two dosing (b.i.d.), after the second dose",4 h
same,AUC(0-t),"[3]; plasma, oral 250 mg/kg, two dosing (b.i.d.), read-out: AUC0-12",1510 ± 72.4 ng·h/mL
same,AUC(0-t),"[3]; plasma, oral 250 mg/kg, two dosing (b.i.d.), read-out: AUC0-24",3100 ± 176 ng·h/mL
same,Exposure up to which no cytotoxic effect was observed,different cells,30 µM

# — publication PMC7262662 (BioMed Research International, 2020)
